Assay [1] concerns P388 lymphocytic leukemia (PS cell line). In words: P388 lymphocytic leukemia (PS) cell line growth inhibition. Particulars: Mus musculus. Format: cell-based, murine. The source says: (§1) The isolation and purification methods chosen can be monitored at each step by performing in-vitro and/or in-vivo antitumor tests as described by R. I. Geran, N. H. Greenberg, M. M. MacDonald, A. M. Schumacher and B. S. Abbot in Cancer Chemother. Rep. Part 3, Vol 3: 1-103 (1972); and by Schmidt, J. M.; Pettit, G. R. in Experientia 1978, 34: 659-660. Such tests include the determination of the concentration of active material required to inhibit the growth of tumor cells in culture, (e.g. the concentration required to inhibit growth by 50 percent or the E.D.50) and of the dose of active material required to prolong the life of mice bearing transplanted tumors. The chemical structures of the bryostatins of the present invention are shown below and the physical characteristics are reported in the pertinent examples. The structures are: [drawing 2]

Assay [2] has as its system P388 lymphocytic leukemia (PS system). Description: in vivo antitumor test in mice bearing P388 lymphocytic leukemia (PS system), life extension / T/C.
From the text: as §1

Assay [3] concerns P388 lymphocytic leukemia and other NCI test systems. In words: cell growth inhibitory and antineoplastic activity against P388 lymphocytic leukemia and other NCI test systems. Further details: species or system murine.
From the text: as §1

Where [4] appears, read: P388 lymphocytic leukemia cell line, read-out: PS cell line growth inhibition ED50.

In brackets after ≈: the same amount, converted by molar mass. Where two headings read alike, the source gives them in different places.

On to `CCCC(=O)O[C@H]1/C(=C/C(=O)OC)C[C@H]2C[C@H]([C@@H](C)O)OC(=O)C[C@H](O)C[C@@H]3C[C@H](OC(C)=O)C(C)(C)[C@](O)(C[C@@H]4C/C(=C/C(=O)OC)C[C@H](/C=C/C(C)(C)[C@]1(O)O2)O4)O3` [Bryostatin 9], for which the IC50 in assay [1] (P388 lymphocytic leukemia, growth inhibition, read-out: PS ED50) came out at 1.2 ng/mL (≈ 1.41 nM). The life extension in assay [2] (at 80 μg/kg) stood at 40%. In addition, the “cell growth inhibitory and antineoplastic activity” value in assay [3] was “substantial cell growth inhibitory and antineoplastic activity”.
Turning to `COC(=O)/C=C1/C[C@H]2C[C@]3(O)O[C@H](C[C@@H](O)CC(=O)O[C@@H]([C@@H](C)O)C[C@@H]4C/C(=C\C(=O)OC)C[C@@](O)(O4)C(C)(C)/C=C/[C@@H](C1)O2)C[C@H](OC(C)=O)C3(C)C` [Bryostatin 11], the IC50 in assay [1] (setting [4]) was determined as 0.018 ng/mL (≈ 0.0235 nM). Also, the “in vivo growth inhibition” value in assay [2] (at 92.5 μg/kg) is on record as 64%. Further, the “cell growth inhibitory and antineoplastic activity” value in assay [3] is “substantial cell growth inhibitory and antineoplastic activity”.
Consider `CCC/C=C/C=C/C(=O)O[C@H]1/C(=C/C(=O)OC)C[C@H]2C[C@H]([C@@H](C)O)OC(=O)C[C@H](O)C[C@@H]3C[C@H](OC(=O)CCC)C(C)(C)[C@](O)(C[C@@H]4C/C(=C/C(=O)OC)C[C@H](/C=C/C(C)(C)[C@]1(O)O2)O4)O3` [Bryostatin 12], for which the IC50 in assay [1] (setting [4]) stood at 14 ng/mL (≈ 15 nM). Further, in assay [2] (at 30-50 μg/kg), the life extension was 47-68%. Further, the “cell growth inhibitory and antineoplastic activity” value in assay [3] is “substantial cell growth inhibitory and antineoplastic activity”.
`CCCC(=O)O[C@H]1C[C@H]2C[C@@H](O)CC(=O)O[C@@H]([C@@H](C)O)C[C@@H]3C/C(=C\C(=O)OC)C[C@@](O)(O3)C(C)(C)/C=C/[C@H]3C/C(=C\C(=O)OC)C[C@@H](C[C@](O)(O2)C1(C)C)O3` [Bryostatin 13]: the IC50 in assay [1] (setting [4]) was 5.4 ng/mL (≈ 6.79 nM). For the same compound, the “cell growth inhibitory and antineoplastic activity” value in assay [3] is “substantial cell growth inhibitory and antineoplastic activity”.

Values taken from patent publication US4833257A, “Compositions of matter and methods of using same” (Arizona Board of Regents, priority 1986, dated 1989).
